US20080312160A1, “METHOD OF TREATING ENTERITIS, […], AND DIARRHEA FROM C. DIFFICILE WITH AN A2A ADENOSINE RECEPTOR AGONIST” (priority 2007, published 2008)
Peptide text beside a SMILES is read from it.

How the values were obtained:
[1] = tested on: murine ileal loops injected with Clostridium difficile toxin A (TxA); experiment: TxA-induced enteritis in ligated murine ileal loops: loop weight and secretion volume; format: in vivo, mice
Method: For this study, 174 male Swiss mice, 25-30 g body weight, from the animal colony of the Federal University of Ceara were used. The animals received water and food ad libitum.
(§1) Mice were fasted overnight, but allowed access to water, and then anesthetized with ketamine and xylazine (60 and 5 mg/Kg intramuscularly, respectively). Through a midline laparotomy, one 4-cm ileal loop was ligated and injected with either 0.1 ml of PBS pH 7.4 (control) or buffer containing TxA (1-10 μg). The abdomen was closed, and the animals were allowed to regain consciousness. Three hours after administration of TxA, mice were sacrificed and the intestinal loops were removed. The loop length, weight, and fluid volume were recorded. A portion of the loop was frozen at −70° C. for measurement of myeloperoxidase (MPO) and ADA activities and TNF-α concentration. The remaining tissue was fixed in 10% formalin and embedded in paraffin, and sections were stained with hematoxylin and eosin for histological grading of ileal inflammation. Some mice were injected with ATL 313 ([…] final concentration) immediately followed by PBS or TxA (5 μg); another group was injected with ZM241385 (5 nM), the selective A2A AR antagonist, immediately followed by PBS or ATL 313 (5 nM)+TxA (5 μg) in the ileal loop. In another experiment, TxA (5 μg) was injected into the ileal loop, the abdomen was closed, and, 30 min later, the abdomen was reopened and ATL 313 (5 nM) administered.

[2] = tested on: Clostridium difficile toxin A (TxA)-induced histological alterations; experiment: Histological grading of ileal inflammation, murine ileal loops; format: in vivo, mice; settings: for median injury score: median(range)
Method: as §1
The severity of inflammation was scored in coded slides by a pathologist on a scale of 1 (mild) to 3 (severe) for epithelial damage, edema, and neutrophil infiltration.

[3] = tested on: Clostridium difficile toxin A (TxA)-induced cell death; experiment: Cell death in intestinal sections (TUNEL method); format: in vivo, mice; settings: ATL 313 + TxA
Method: as §1, with “administered. […]” for “administered.”

[4] = tested on: Clostridium difficile toxin A-induced MPO activity; experiment: MPO assay in ileal tissue (neutrophil accumulation); format: in vivo, mice
Method: as §1, with “In another experiment, TxA (5 μg) was injected into the ileal loop, the abdomen was closed, and, 30 min later, the abdomen was reopened and ATL 313 (5 nM) administered.” left out
The extent of neutrophil accumulation in ileal tissue was estimated by measuring MPO activity assay. […] MPO activity in the resuspended pellet was assayed by measuring the change in absorbance at 450 nm using o-dianisidine dihydrochloride and 1% hydrogen peroxide. […]

[5] = tested on: Clostridium difficile toxin A-induced TNF-α production; experiment: Quantification of TNF-α by ELISA in ileal tissue; format: in vivo, mice; settings: ATL 313 + TxA vs TxA only
Method: as §1, with “In another experiment, TxA (5 μg) was injected into the ileal loop, the abdomen was closed, and, 30 min later, the abdomen was reopened and ATL 313 (5 nM) administered.” left out
Ileal tissue was harvested from animals in order to measure TNF-α concentration by enzyme-linked immunosorbent assay (ELISA). The results are expressed as pg/mL of TNF-α.

[6] = tested on: Clostridium difficile toxin A-induced ADA activity; experiment: ADA activity in ileal tissue and ileal secretion; format: in vivo, mice; settings: ATL 313 in TxA-challenged animals
Method: Mice were fasted overnight, but allowed access to water, and then anesthetized with ketamine and xylazine (60 and 5 mg/Kg intramuscularly, respectively). Through a midline laparotomy, one 4-cm ileal loop was ligated and injected with either 0.1 ml of PBS pH 7.4 (control) or buffer containing TxA (1-10 μg). The abdomen was closed, and the animals were allowed to regain consciousness. Three hours after administration of TxA, mice were sacrificed and the intestinal loops were removed. The loop length, weight, and fluid volume were recorded. A portion of the loop was frozen at −70° C. for measurement of myeloperoxidase (MPO) and ADA activities and TNF-α concentration. […]
The ADA assay is based on the measurement of ammonia produced during the deamination of adenosine by the method of Giusti (1974. Adenosine deaminase, p. 1092-1099. In H. U. Bergmeyer (Ed.), Methods of Enzymatic Analysis, vol. 2. Academic Press Inc., New York), with slight modifications. […] Following the addition of 600 μl of sodium hypochloride (11 mM) in 125 mM NaOH all tubes were again incubated at 37° C. for 30 min and read at 628 nm. The enzyme activity in the tissue and in the ileum contents was expressed as μmols of ammonium formed/mg of protein/hour and as μmols of ammonium formed/hour, respectively.

[7] = tested on: C. difficile toxin A-induced inflammation and secretion in rabbit ileal loops; format: in vivo, New Zealand white rabbits; settings: ATL 313 100 nM with alanyl-glutamine 25 mM; 5 hours
Method: Materials and Methods: New Zealand white rabbits weighing about 2 kg are fasted overnight. Under anesthesia with ketamine (60-80 mg/kg) and xylazine (5-10 mg/kg) administered intramuscularly, a midline abdominal incision is performed to expose the small bowel. After the ileum is flushed, four-cm loops are ligated using double ties with a 1 cm interval between loops. Each of the control loops is injected intraluminally with 1 mL solution of PBS with either C. difficile toxin A (toxin A) (Techlab, Blacksburg, Va.) at 10 μg/mL. Loops from another set of rabbits are treated with the adenosine A2A agonists, JMR 193 (ATL 193) (10 nM, 100 nM, or 1 uM doses) or ATL 146e ([…], 100 nM, 1 uM doses) immediately before the enterotoxin is administered. In addition a rabbit is treated with A2A agonist, ATL 313 (100 nM), alone and another rabbit treated with ATL 313 with alanyl-glutamine (25 mM). After 5 hours of incubation, the ligated small intestinal loops are removed. The length of each ligated ileal segment is measured and intraluminal fluid was quantified. Volume to length ratio, V/L (mL/cm), per loop is calculated. Samples of intestinal stained with hematoxylin-eosin and graded from 0 (none) to 4 (worst) based on the degree of mucosal disruption, increase in cellularity and intensity of vascular congestion.

[8] = tested on: Toxin A-induced secretion in rabbit ileal loops; experiment: Rabbit ileal loops, toxin A-induced secretion (Example 3); format: in vivo, New Zealand white rabbits
Source text: Rabbit Ileal Loops: The animal experiment protocol was approved by the Animal Care and Use Committee at the University of Virginia. Eight New Zealand white rabbits weighing between 2.5-3 kg were used for this experiment. Each rabbit was fasted overnight. On the day of the experiment, the rabbits were anesthetized intramuscularly using a ketamine and xylazine solution in a 2:1 ratio. An intravenous line was placed in the ear vein of each rabbit for administration of the adenosine analog, ATL 370 (Adenosine Therapeutics) or a phosphate buffered saline placebo (PBS). Once anesthetized, a midline abdominal incision was made and the ileum was exposed. A measured amount of ileum was injected with 5 mL of PBS to flush any remaining fecal material. After the ileum was flushed, 10 loops of 2.5-5 cm each were ligated using double ties, with 0.5-1 cm of space between each loop.
Once the bowel was exposed and ligated, each rabbit received a 250 μL IV injection of PBS (Toxin A and Toxin A/Alanyl glutamine groups) or 1.5 ug/250 μL of ATL 370 (Toxin A/Adenosine and Toxin A/Adenosine/Alanyl-glutamine groups). An additional dose of either PBS or ATL 370 was administered 2 hours after the first dose for a total of 2 doses. Each dose was followed by a 250-500 μL heparin saline injection to prevent the IV from clotting.
A total of 79 loops were studied, of which 15 loops from 8 animals served as controls. Each of the control loops were injected intraluminally with 1 mL of a sterile PBS solution. The remaining 64 loops were injected intraluminally with 20 μg/500 μL of Toxin A (TechLab) and combined with either 500 μL PBS (Toxin A and Toxin A/Adenosine groups) or 500 μL of a […], 30 mM, 10 mM, or 3 mM alanyl-glutamine solution (Toxin A/Alanyl-glutamine and Toxin A/Adenosine/Alanyl-glutamine groups). The ileal loops were replaced intraperitoneally and the abdomimal incision was sutured. Sedation continued throughout the procedure and were euthanized after 4 hours.
Measurement of intestinal secretion: After 4 hours of incubation, the animals were euthanized and the ligated loops were immediately removed. The length of each loop was measured and incised and the intraluminal secretion was quantified. The volume to length ratio (V:L) was measured as milliliters per centimeter per loop. The gross description of intestinal fluid (serous, serosanguinous, hemorrhagic or purulent) was documented.

[9] = tested on: Toxin A-induced secretion in rabbit ileal loops; experiment: as above; format: in vivo, New Zealand white rabbits; remark: listed apart in the source
[10] = ATL 313 5 nM alone, absence of TxA
[11] = ATL 313 5 nM in loop immediately followed by TxA 5 μg, 3 h, vs TxA alone

COC(=O)N1CCC(CC#Cc2nc(N)c3ncn(C4OC(C(=O)NC5CC5)C(O)C4O)c3n2)CC1 (centres unmarked) [ATL 313, 4-{3-[6-Amino-9-(5-cyclopropylcarbamoyl-3,4-dihydroxy-tetrahydro-furan-2-yl)-9H-purin-2-yl]-prop-2-ynyl}-piperidine-1-carboxylic acid methyl ester]
secretion volume/ileal loop length ratio [1, 10]: did not alter | weight/ileal loop length ratio [1, 10]: did not alter | weight/ileal loop length ratio ([1]; ATL 313 5 nM given 30 min after TxA 5 μg): 28.3 ± 1.4 mg/cm | secretion volume/ileal loop length ratio [1, 11]: significantly (P<0.05) reduced | weight/ileal loop length ratio [1, 11]: significantly (P<0.05) reduced | histological injury score ([2]; ATL 313 30 min after injection of TxA 5 μg): 1(0-2) | median injury score ([2]; ATL 313 + TxA 5 μg/loop): 1(0-2) | median injury score ([2]; compound alone, no TxA): 0(0-0) | mucosal cell death [3]: reduced number for cell death similar to the level of PBS control | MPO activity in ileal tissue ([4]; ATL 313 5 nM alone, PBS=1.6±0.6): 2.1±0.2 U/mg | MPO activity in ileal tissue ([4]; ATL 313 5 nM then TxA 5 μg): 1.0±0.6 U/mg | TNF-α production in ileal tissue [5]: significantly reduced (P<0.05) | ADA activity in ileal secretion [6]: significantly reduced (P<0.05) | ADA activity in ileal tissue [6]: significantly reduced (P<0.05) | toxin A-induced inflammation [7]: improved inflammation | toxin A-induced secretion (volume to length ratio) [7]: dramatically improved secretion

Nc1nc(C#CCC2CCN(C(=O)Oc3ccc(Cl)cc3)CC2)nc2c1ncn2C1OC(C(=O)NC2CC2)C(O)C1O (centres unmarked) [ATL 370, 4-{3-[6-Amino-9-(5-cyclopropylcarbamoyl-3,4-dihydroxy-tetrahydro-furan-2-yl)-9H-purin-2-yl]-prop-2-ynyl}-piperidine-1-carboxylic acid 4-chloro-phenyl ester]
V:L ratio ([8]; ATL 370 IV 1.5 ug x 2 doses + intraluminal toxin A only, n=8, p=0.35 vs toxin A): 0.44 mL/cm | V:L ratio ([8]; ATL 370 IV + toxin A + alanyl-glutamine 3 mM): 0.21 mL/cm | V:L ratio ([8]; ATL 370 IV + toxin A + alanyl-glutamine 10 mM): 0.20 mL/cm | V:L ratio ([8]; ATL 370 IV + toxin A + alanyl-glutamine 30 mM): 0.14 mL/cm | loops purulent ([8]; ATL 370 IV + toxin A + alanyl-glutamine, all doses (7/16)): 44% | number of hemorrhagic loops ([8]; ATL 370 IV + toxin A + alanyl-glutamine, all doses (16 loops)): one | loops either hemorrhagic or purulent ([8]; ATL 370 IV + toxin A only (10/16)): 63% | V:L ratio ([9]; ATL 370 IV + toxin A + alanyl-glutamine 100 mM, n=4, p<0.001 vs toxin A): 0.05 mL/cm

C[C@H](N)C(=O)N[C@@H](CCC(N)=O)C(=O)O [alanyl-glutamine] (H-Ala-Gln-OH)
V:L ratio ([8]; toxin A mixed with alanyl-glutamine 3 mM, intraluminal, 4 hours): 0.96 mL/cm | V:L ratio ([8]; toxin A mixed with alanyl-glutamine 10 mM, intraluminal, 4 hours): 0.84 mL/cm | V:L ratio ([8]; toxin A mixed with alanyl-glutamine 30 mM, intraluminal, 4 hours): 0.67 mL/cm | loops hemorrhagic, purulent, or a combination of the two ([8]; toxin A/alanyl-glutamine loops (11/15)): 73% | V:L ratio ([9]; toxin A mixed with alanyl-glutamine 100 mM, intraluminal, 4 hours): 0.44 mL/cm
